Assays:
Type in all cases: in vivo
[1] = test system: nutsedge, yellow (yellow nutsedge, Cyperus esculentus); assay: Test C greenhouse herbicide test, pre- and postemergence
In short: (§1)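 Preemergence: seeds sown in a loam soil–sand blend and sprayed with test chemicals in a non-phytotoxic solvent mixture containing surfactant. Postemergence: plants grown in peat-based medium and treated at 2 to 18 cm (1- to 4-leaf stage). After 13 to 15 d in a greenhouse, injury was visually rated 0–100 against controls.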

[2] = test system: galium (catchweed bedstraw, Galium aparine); assay: as above
In short: as §1

[3] = test system: barnyardgrass (Echinochloa crus-galli); assay: as above
In short: as §1

[4] = test system: wheat (winter wheat, Triticum aestivum); assay: as above
In short: as §1

[5] = test system: galium (catchweed bedstraw, Galium aparine); assay: Test A greenhouse herbicide test, postemergence
In short: (§2)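 Greenhouse postemergence test: formulated chemicals sprayed on one- to two-leaf plants (2 to 10 cm), grown in loam soil blended with sand. Injury assessed visually about 10 d later against untreated controls, scored 0 (no effect) to 100 (complete control).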

[6] = test system: blackgrass (Alopecurus myosuroides); assay: Test A greenhouse herbicide test, postemergence
In short: as §2

[7] = test system: ragweed (common ragweed, Ambrosia elatior); assay: Test A greenhouse herbicide test, pre- and postemergence
In short: (§3)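 Seeds sown in loam–sand blend got a preemergence directed soil spray of compound in non-phytotoxic solvent with surfactant. Postemergence treatment was given at 2–10 cm, one- to two-leaf stage. After ~10 d in greenhouse, injury was rated visually vs untreated controls, 0 (no effect) to 100 (complete control).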

[8] = test system: pigweed (Amaranthus retroflexus); assay: as above
In short: as §3

corn (Zea mays) = assay: as above; conditions: Postemergence
In short: as §3

[9] = test system: barnyardgrass (Echinochloa crus-galli); assay: as above
In short: as §3

[10] = test system: foxtail, giant (giant foxtail, Setaria faberii); assay: as above
In short: as §3

[11] = Postemergence, 31 g ai/ha, scale 0 to 100 (0 no effect, 100 complete control)
[12] = Postemergence, 62 g ai/ha, 0 to 100 scale (0 no effect, 100 complete control)
[13] = Postemergence, 250 g ai/ha, scale 0 to 100, 0 no effect, 100 complete control, 13 to 15 d
[14] = Preemergence, 31 g ai/ha, scale 0 to 100, 0 is no effect, 100 is complete control
[15] = Preemergence, 62 g ai/ha, scale 0 to 100, 0 is no effect, 100 is complete control
[16] = Preemergence, 125 g ai/ha, scale 0 to 100, 0 is no effect, 100 is complete control
[17] = Preemergence, 250 g ai/ha, scale 0 to 100 (0 no effect, 100 complete control)
[18] = postemergence, 125 g ai/ha, scale 0 to 100, 0 no effect, 100 complete control
[19] = Postemergence, 125 g ai/ha, scale 0 to 100, 0 is no effect, 100 is complete control
[20] = 125 g ai/ha, 0 to 100 scale where 0 is no effect and 100 is complete control
[21] = 500 g ai/ha, visual rating after approx. 10 d, 0 to 100 scale (0 no effect, 100 complete control)
[22] = Postemergence, 125 g ai/ha, 0 to 100 scale where 0 is no effect and 100 is complete control
[23] = Postemergence, 500 g ai/ha, visual rating after approx. 10 d, 0 to 100 scale (0 no effect, 100 complete control)
[24] = Preemergence, 125 g ai/ha, 0 to 100 scale where 0 is no effect and 100 is complete control
[25] = Preemergence, 500 g ai/ha, 0 to 100 scale where 0 is no effect and 100 is complete control

Structure (SMILES): CCC(=O)Oc1c(C)nn(C)c(=O)c1-c1ccc(Br)c2ccccc12 [Compound 133]
- Plant response rating, Nutsedge, Yellow [1, 11]: 75
- Nutsedge, Yellow plant response rating [1, 12]: 90
- Plant response rating, Nutsedge, Yellow [1, 13]: 98
- Plant response rating, Nutsedge, Yellow [1, 14]: 20
- Plant response rating, Nutsedge, Yellow [1, 15]: 55
- Plant response rating, Nutsedge, Yellow [1, 16]: 70
- Nutsedge, Yellow plant response rating [1, 17]: 95
- Nutsedge, Yellow plant response rating [1, 18]: 95
- Plant response rating, Galium [2, 11]: 90
- Galium plant response rating [2, 12]: 95
- Plant response rating, Galium [2, 13]: 100
- Plant response rating, Galium [2, 14]: 95
- Plant response rating, Galium [2, 15]: 95
- Plant response rating, Galium [2, 16]: 100
- Galium plant response rating [2, 17]: 100
- Galium plant response rating [2, 18]: 98
- Plant response rating, Barnyardgrass [3, 11]: 15
- Barnyardgrass plant response rating [3, 12]: 30
- Plant response rating, Barnyardgrass [3, 19]: 45
- Plant response rating, Barnyardgrass [3, 13]: 35
- Plant response rating, Barnyardgrass [3, 14]: 0
- Plant response rating, Barnyardgrass [3, 15]: 40
- Plant response rating, Barnyardgrass [3, 16]: 50
- Barnyardgrass plant response rating [3, 17]: 95
- Plant response rating, Wheat [4, 11]: 25
- Wheat plant response rating [4, 12]: 35
- Plant response rating, Wheat [4, 13]: 80
- Plant response rating, Wheat [4, 14]: 0
- Plant response rating, Wheat [4, 15]: 0
- Plant response rating, Wheat [4, 16]: 10
- Wheat plant response rating [4, 17]: 40
- Wheat plant response rating [4, 18]: 55
- Plant response rating, Galium [5, 20]: 100
- Plant response rating, Galium [5, 21]: 100
- Plant response rating, Blackgrass [6, 20]: 60
- Plant response rating, Blackgrass [6, 21]: 60
- Plant response rating, Ragweed [7, 22]: 100
- Plant response rating, Ragweed [7, 23]: 100
- Ragweed plant response rating [7, 24]: 90
- Plant response rating, Ragweed [7, 25]: 100
- Plant response rating, Pigweed [8, 22]: 90
- Plant response rating, Pigweed [8, 23]: 100
- Pigweed plant response rating [8, 24]: 80
- Plant response rating, Pigweed [8, 25]: 100
- Plant response rating, Corn (corn (Zea mays); [20]): 10
- Plant response rating, Corn (corn (Zea mays); [21]): 50
- Plant response rating, Barnyardgrass [9, 22]: 20
- Plant response rating, Barnyardgrass [9, 23]: 90
- Barnyardgrass plant response rating [9, 24]: 20
- Plant response rating, Barnyardgrass [9, 25]: 50
- Plant response rating, Foxtail, Giant [10, 22]: 20
- Plant response rating, Foxtail, Giant [10, 23]: 90
- Foxtail, Giant plant response rating [10, 24]: 40
- Plant response rating, Foxtail, Giant [10, 25]: 70

Structure (SMILES): COC(=O)Oc1c(Br)nn(C)c(=O)c1-c1c(C)ccc2ccccc12 [Compound 137]
- Plant response rating, Nutsedge, Yellow [1, 11]: 65
- Nutsedge, Yellow plant response rating [1, 12]: 85
- Plant response rating, Nutsedge, Yellow [1, 13]: 90
- Plant response rating, Nutsedge, Yellow [1, 14]: 55
- Plant response rating, Nutsedge, Yellow [1, 15]: 85
- Plant response rating, Nutsedge, Yellow [1, 16]: 90
- Nutsedge, Yellow plant response rating [1, 17]: 95
- Nutsedge, Yellow plant response rating [1, 18]: 85
- Plant response rating, Galium [2, 11]: 85
- Galium plant response rating [2, 12]: 90
- Plant response rating, Galium [2, 13]: 95
- Plant response rating, Galium [2, 14]: 98
- Plant response rating, Galium [2, 15]: 98
- Plant response rating, Galium [2, 16]: 98
- Galium plant response rating [2, 17]: 100
- Galium plant response rating [2, 18]: 90
- Plant response rating, Barnyardgrass [3, 11]: 25
- Barnyardgrass plant response rating [3, 12]: 40
- Plant response rating, Barnyardgrass [3, 19]: 50
- Plant response rating, Barnyardgrass [3, 13]: 65
- Plant response rating, Barnyardgrass [3, 14]: 35
- Plant response rating, Barnyardgrass [3, 15]: 85
- Plant response rating, Barnyardgrass [3, 16]: 90
- Barnyardgrass plant response rating [3, 17]: 100
- Plant response rating, Wheat [4, 11]: 75
- Wheat plant response rating [4, 12]: 90
- Plant response rating, Wheat [4, 13]: 95
- Plant response rating, Wheat [4, 14]: 15
- Plant response rating, Wheat [4, 15]: 80
- Plant response rating, Wheat [4, 16]: 90
- Wheat plant response rating [4, 17]: 90
- Wheat plant response rating [4, 18]: 90
- Plant response rating, Galium [5, 20]: 100
- Plant response rating, Galium [5, 21]: 100
- Plant response rating, Blackgrass [6, 20]: 90
- Plant response rating, Blackgrass [6, 21]: 100
- Plant response rating, Ragweed [7, 22]: 100
- Plant response rating, Ragweed [7, 23]: 100
- Ragweed plant response rating [7, 24]: 90
- Plant response rating, Ragweed [7, 25]: 100
- Plant response rating, Pigweed [8, 22]: 100
- Plant response rating, Pigweed [8, 23]: 100
- Pigweed plant response rating [8, 24]: 100
- Plant response rating, Pigweed [8, 25]: 100
- Plant response rating, Corn (corn (Zea mays); [20]): 30
- Plant response rating, Corn (corn (Zea mays); [21]): 70
- Plant response rating, Barnyardgrass [9, 22]: 70
- Plant response rating, Barnyardgrass [9, 23]: 100
- Barnyardgrass plant response rating [9, 24]: 90
- Plant response rating, Barnyardgrass [9, 25]: 100
- Plant response rating, Foxtail, Giant [10, 22]: 100
- Plant response rating, Foxtail, Giant [10, 23]: 100
- Foxtail, Giant plant response rating [10, 24]: 90
- Plant response rating, Foxtail, Giant [10, 25]: 100

Structure (SMILES): COc1nn(C)c(=O)c(-c2c(C)ccc3ccccc23)c1OC(C)=O [Compound 138]
- Plant response rating, Nutsedge, Yellow [1, 11]: 45
- Nutsedge, Yellow plant response rating [1, 12]: 65
- Plant response rating, Nutsedge, Yellow [1, 13]: 80
- Plant response rating, Nutsedge, Yellow [1, 14]: 5
- Plant response rating, Nutsedge, Yellow [1, 15]: 60
- Plant response rating, Nutsedge, Yellow [1, 16]: 95
- Nutsedge, Yellow plant response rating [1, 17]: 90
- Nutsedge, Yellow plant response rating [1, 18]: 75
- Plant response rating, Galium [2, 11]: 90
- Galium plant response rating [2, 12]: 90
- Plant response rating, Galium [2, 13]: 95
- Plant response rating, Galium [2, 14]: 95
- Plant response rating, Galium [2, 15]: 98
- Plant response rating, Galium [2, 16]: 98
- Galium plant response rating [2, 17]: 98
- Galium plant response rating [2, 18]: 95
- Plant response rating, Barnyardgrass [3, 11]: 25
- Barnyardgrass plant response rating [3, 12]: 25
- Plant response rating, Barnyardgrass [3, 19]: 30
- Plant response rating, Barnyardgrass [3, 13]: 40
- Plant response rating, Barnyardgrass [3, 14]: 30
- Plant response rating, Barnyardgrass [3, 15]: 55
- Plant response rating, Barnyardgrass [3, 16]: 90
- Barnyardgrass plant response rating [3, 17]: 98
- Plant response rating, Wheat [4, 11]: 60
- Wheat plant response rating [4, 12]: 40
- Plant response rating, Wheat [4, 13]: 90
- Plant response rating, Wheat [4, 14]: 0
- Plant response rating, Wheat [4, 15]: 35
- Plant response rating, Wheat [4, 16]: 5
- Wheat plant response rating [4, 17]: 5
- Wheat plant response rating [4, 18]: 80
- Plant response rating, Galium [5, 20]: 100
- Plant response rating, Galium [5, 21]: 100
- Plant response rating, Blackgrass [6, 20]: 80
- Plant response rating, Blackgrass [6, 21]: 90
- Plant response rating, Ragweed [7, 22]: 100
- Plant response rating, Ragweed [7, 23]: 100
- Plant response rating, Ragweed [7, 25]: 100
- Plant response rating, Pigweed [8, 22]: 90
- Plant response rating, Pigweed [8, 23]: 100
- Pigweed plant response rating [8, 24]: 100
- Plant response rating, Pigweed [8, 25]: 100
- Plant response rating, Corn (corn (Zea mays); [20]): 0
- Plant response rating, Corn (corn (Zea mays); [21]): 20
- Plant response rating, Barnyardgrass [9, 22]: 20
- Plant response rating, Barnyardgrass [9, 23]: 100
- Barnyardgrass plant response rating [9, 24]: 10
- Plant response rating, Barnyardgrass [9, 25]: 100
- Plant response rating, Foxtail, Giant [10, 22]: 90
- Plant response rating, Foxtail, Giant [10, 23]: 100
- Foxtail, Giant plant response rating [10, 24]: 90
- Plant response rating, Foxtail, Giant [10, 25]: 100

Reference: US10597388B2, “Pyridazinone herbicides” (FMC CORPORATION, priority 2014, dated 2020)
